Results from patent publication US10588317B2, “Isoxazoline-substituted benzamides and analogues as insecticides” (priority 2015, dated 2020).
Where two headings read alike, the source gives them in different places.

Legend:
Format in all cases: in vivo
Spodoptera littoralis = Spodoptera littoralis (Egyptian cotton leaf worm), sprayed cotton leaf discs; conditions: foliar, 72 h, read-out: control (mortality, anti-feeding effect, growth inhibition)
Method: Cotton leaf discs were placed onto agar in 24-well microtiter plates and sprayed with aqueous test solutions prepared from 10'000 ppm DMSO stock solutions. After drying the leaf discs were infested with five L1 larvae. The samples were assessed for mortality, anti-feeding effect, and growth inhibition in comparison to untreated samples 3 days after infestation. Control of Spodoptera littoralis by a test sample is given when at least one of the categories mortality, anti-feedant effect, and growth inhibition is higher than the untreated sample.

Euschistus heros = Euschistus heros (neotropical brown stink bug), sprayed soybean leaves; conditions: 120 h, application rate 200 ppm, N2 nymphs, 5 days after infestation, read-out: effect in at least one of the two categories (mortality or growth inhibition)
Method: Soybean leaves on agar in 24-well microtiter plates were sprayed with aqueous test solutions prepared from 10'000 ppm DMSO stock solutions. After drying the leaves were infested with N2 nymphs. The samples were assessed for mortality and growth inhibition in comparison to untreated samples 5 days after infestation.
(§1) The following compounds gave an effect of at least 80% in at least one of the two categories (mortality or growth inhibition) at an application rate of 200 ppm: […]

Plutella xylostella = Plutella xylostella (diamond back moth), artificial diet; conditions: 120 h, read-out: effect in at least one of the two categories (mortality or growth inhibition); for percent effect (mortality or growth inhibition) at 200 ppm: application rate 200 ppm, L2 larvae, 5 days after infestation
Method: (§2) 24-well microtiter plates with artificial diet were treated with aqueous test solutions prepared from 10'000 ppm DMSO stock solutions by pipetting. After drying, the plates were infested with L2 larvae (10 to 15 per well). The samples were assessed for mortality and growth inhibition in comparison to untreated samples 5 days after infestation.
as §1

Thrips tabaci = Thrips tabaci (onion thrips): feeding/contact activity; conditions: 144 h
Method: (§3) Sunflower leaf discs were placed on agar in 24-well microtiter plates and sprayed with aqueous test solutions prepared from 10'000 ppm DMSO stock solutions. After drying the leaf discs were infested with a Thrips population of mixed ages. The samples were assessed for mortality 6 days after infestation.

Tetranychus urticae = Tetranychus urticae (two-spotted spider mite): feeding/contact activity; conditions: 192 h, application rate 200 ppm, mixed population (mobile stages), 8 days after infestation, read-out: mortality
Method: as §3, with “Bean” for “Sunflower”, “discs” for “discs were placed”, “were” for “and”, “mite” for “Thrips”, “on mixed population (mobile stages) 8” for “6”

Diabrotica balteata = Diabrotica balteata (corn root worm), sprayed maize sprouts; conditions: 96 h, application rate 200 ppm, L2 larvae, 4 days after infestation, read-out: effect in at least one of the two categories (mortality or growth inhibition)
Method: as §2, with “Maize sprouts placed onto an agar layer in 24-well” for “24-well”, “plates” for “plates with artificial diet”, “spraying.” for “pipetting.”, “(6” for “(10”, “10” for “15”, “4” for “5”
as §1

[1] = application rate 200 ppm, L1 larvae, 3 days after infestation
[2] = application rate 200 ppm, Thrips population of mixed ages, 6 days after infestation, read-out: mortality

CCOC(=O)CN(C)S(=O)(=O)N1CC(NC(=O)c2ccc(C3=NO[C@@](c4cc(Cl)c(Cl)c(Cl)c4)(C(F)(F)F)C3)cc2C)CO1 (stereo partly drawn) [Compound A89, ethyl 2-[methyl-[4-[[2-methyl-4-[(5S)-5-(3,4,5-trichlorophenyl)-5-(trifluoromethyl)-4H-isoxazol-3-yl]benzoyl]amino]isoxazolidin-2-yl]sulfonyl-amino]acetate]
≥ 80%: mortality at 200 ppm (Spodoptera littoralis; [1]) | percent effect (mortality or growth inhibition) at 200 ppm (Euschistus heros) | percent effect (mortality or growth inhibition) at 200 ppm (Plutella xylostella) | mortality at 200 ppm (Thrips tabaci; [2]) | mortality at 200 ppm (Tetranychus urticae) | percent effect (mortality or growth inhibition) at 200 ppm (Diabrotica balteata)

COC(=O)CS(=O)(=O)N1C[C@@H](NC(=O)c2ccc(C3=NO[C@](c4cc(Cl)cc(Cl)c4)(C(F)(F)F)C3)cc2C)CO1 [Compound A176, methyl 2-[[(4R)-4-[[4-[(5R)-5-(3,5-dichlorophenyl)-5-(trifluoromethyl)-4H-1,2-oxazol-3-yl]-2-methylbenzoyl]amino]-1,2-oxazolidin-2-yl]sulfonyl]acetate]
≥ 80%: mortality at 200 ppm (Spodoptera littoralis; [1]) | percent effect (mortality or growth inhibition) at 200 ppm (Euschistus heros) | percent effect (mortality or growth inhibition) at 200 ppm (Plutella xylostella) | mortality at 200 ppm (Thrips tabaci; [2]) | mortality at 200 ppm (Tetranychus urticae) | percent effect (mortality or growth inhibition) at 200 ppm (Diabrotica balteata)

C=CS(=O)(=O)N1C[C@@H](NC(=O)c2ccc(C3=NO[C@@](c4cc(Cl)c(F)c(Cl)c4)(C(F)(F)F)C3)cc2C)CO1 [Compound A193, 4-[(5S)-5-(3,5-dichloro-4-fluorophenyl)-5-(trifluoromethyl)-4H-1,2-oxazol-3-yl]-N-[(4R)-2-ethenylsulfonyl-1,2-oxazolidin-4-yl]-2-methylbenzamide]
≥ 80%: mortality at 200 ppm (Spodoptera littoralis; [1]) | percent effect (mortality or growth inhibition) at 200 ppm (Plutella xylostella) | mortality at 200 ppm (Thrips tabaci; [2]) | mortality at 200 ppm (Tetranychus urticae)

CNC(=O)CS(=O)(=O)N1C[C@H](NC(=O)c2ccc(C3=NO[C@@](c4cc(Cl)cc(Cl)c4)(C(F)(F)F)C3)cc2C)CO1 [Compound A201]
≥ 80%: mortality at 200 ppm (Spodoptera littoralis; [1]) | percent effect (mortality or growth inhibition) at 200 ppm (Euschistus heros) | percent effect (mortality or growth inhibition) at 200 ppm (Plutella xylostella) | mortality at 200 ppm (Tetranychus urticae) | percent effect (mortality or growth inhibition) at 200 ppm (Diabrotica balteata)

Cc1cc(C2=NO[C@](c3ccc(C(F)(F)F)c(F)c3)(C(F)(F)F)C2)ccc1C(=O)N[C@@H]1CON(S(=O)(=O)N(C)C)C1 [Compound A171]
≥ 80%: mortality at 200 ppm (Spodoptera littoralis; [1]) | percent effect (mortality or growth inhibition) at 200 ppm (Plutella xylostella) | mortality at 200 ppm (Thrips tabaci; [2]) | mortality at 200 ppm (Tetranychus urticae) | percent effect (mortality or growth inhibition) at 200 ppm (Diabrotica balteata)

Cc1cc(C2=NO[C@](c3cc(Cl)cc(Cl)c3)(C(F)(F)F)C2)ccc1C(=O)N[C@H]1CON(S(=O)(=O)NC2(C#N)CC2)C1 [Compound A167]
≥ 80%: mortality at 200 ppm (Spodoptera littoralis; [1]) | percent effect (mortality or growth inhibition) at 200 ppm (Euschistus heros) | percent effect (mortality or growth inhibition) at 200 ppm (Plutella xylostella) | mortality at 200 ppm (Thrips tabaci; [2]) | mortality at 200 ppm (Tetranychus urticae) | percent effect (mortality or growth inhibition) at 200 ppm (Diabrotica balteata)

COC(=O)CN(C)S(=O)(=O)N1CC(NC(=O)c2ccc(C3=NO[C@@](c4cc(Cl)c(Cl)c(Cl)c4)(C(F)(F)F)C3)cc2C)CO1 (stereo partly drawn) [Compound A88, methyl 2-[methyl-[4-[[2-methyl-4-[(5S)-5-(3,4,5-trichlorophenyl)-5-(trifluoromethyl)-4H-isoxazol-3-yl]benzoyl]amino]isoxazolidin-2-yl]sulfonyl-amino]acetate]
≥ 80%: mortality at 200 ppm (Spodoptera littoralis; [1]) | percent effect (mortality or growth inhibition) at 200 ppm (Euschistus heros) | percent effect (mortality or growth inhibition) at 200 ppm (Plutella xylostella) | mortality at 200 ppm (Thrips tabaci; [2]) | mortality at 200 ppm (Tetranychus urticae) | percent effect (mortality or growth inhibition) at 200 ppm (Diabrotica balteata)

C=CS(=O)(=O)N1C[C@H](NC(=O)c2ccc(C3=NO[C@@](c4cc(Cl)cc(Cl)c4)(C(F)(F)F)C3)cc2C)CO1 [Compound A175]
≥ 80%: mortality at 200 ppm (Spodoptera littoralis; [1])

CS(=O)(=O)N1CC(NC(=O)c2ccc(C3=NOC(c4cc(Cl)cc(Cl)c4)(C(F)(F)F)C3)cn2)CO1 (stereo not shown) [Compound A238]
≥ 80%: mortality at 200 ppm (Spodoptera littoralis; [1])

CNS(=O)(=O)N1C[C@H](NC(=O)c2ccc(C3=NO[C@@](c4ccc(C(F)(F)F)c(F)c4)(C(F)(F)F)C3)cc2C)CO1 [Compound A182]
≥ 80%: mortality at 200 ppm (Spodoptera littoralis; [1]) | percent effect (mortality or growth inhibition) at 200 ppm (Plutella xylostella) | mortality at 200 ppm (Thrips tabaci; [2]) | mortality at 200 ppm (Tetranychus urticae) | percent effect (mortality or growth inhibition) at 200 ppm (Diabrotica balteata)

Cc1cc(C2=NO[C@@](c3cc(Cl)c(Cl)c(Cl)c3)(C(F)(F)F)C2)ccc1C(=O)NC1CON(S(C)(=O)=O)C1 (stereo partly drawn) [Compound A26, 2-methyl-N-(2-methylsulfonylisoxazolidin-4-yl)-4-[(5S)-5-(3,4,5-trichlorophenyl)-5-(trifluoromethyl)-4H-isoxazol-3-yl]benzamide]
≥ 80%: percent effect (mortality or growth inhibition) at 200 ppm (Euschistus heros)

Cc1cc(C2=NOC(c3ccc(OC(F)(F)F)cc3)(C(F)(F)F)C2)ccc1C(=O)NC1CON(S(C)(=O)=O)C1 (stereo not shown) [Compound A53]
≥ 80%: mortality at 200 ppm (Spodoptera littoralis; [1]) | percent effect (mortality or growth inhibition) at 200 ppm (Plutella xylostella) | mortality at 200 ppm (Tetranychus urticae) | percent effect (mortality or growth inhibition) at 200 ppm (Diabrotica balteata)

Cc1cc(Cl)cc(C2(C(F)(F)F)CC(c3ccc(C(=O)NC4CON(S(C)(=O)=O)C4)c(C)c3)=NO2)c1 (stereo not shown) [Compound A51]
≥ 80%: mortality at 200 ppm (Spodoptera littoralis; [1]) | percent effect (mortality or growth inhibition) at 200 ppm (Plutella xylostella) | mortality at 200 ppm (Thrips tabaci; [2]) | mortality at 200 ppm (Tetranychus urticae) | percent effect (mortality or growth inhibition) at 200 ppm (Diabrotica balteata)

Cc1cc(C2=NOC(c3ccnc(F)c3)(C(F)(F)F)C2)ccc1C(=O)NC1CON(S(C)(=O)=O)C1 (stereo not shown) [Compound A54]
≥ 80%: mortality at 200 ppm (Spodoptera littoralis; [1]) | percent effect (mortality or growth inhibition) at 200 ppm (Euschistus heros) | percent effect (mortality or growth inhibition) at 200 ppm (Plutella xylostella) | mortality at 200 ppm (Tetranychus urticae) | percent effect (mortality or growth inhibition) at 200 ppm (Diabrotica balteata)

CS(=O)(=O)N1CC(NC(=O)c2ccc(C3=NOC(c4cc(Cl)cc(Cl)c4)(C(F)(F)F)C3)c3ncccc23)CO1 (stereo not shown) [Compound A56]
≥ 80%: mortality at 200 ppm (Spodoptera littoralis; [1]) | percent effect (mortality or growth inhibition) at 200 ppm (Plutella xylostella)

Cc1cc(C2=NO[C@](c3cc(Cl)cc(Cl)c3)(C(F)(F)F)C2)ccc1C(=O)N[C@H]1CON(S(=O)(=O)CCBr)C1 [Compound A177, N-[(4R)-2-(2-bromoethylsulfonyl)-1,2-oxazolidin-4-yl]-4-[(5R)-5-(3,5-dichlorophenyl)-5-(trifluoromethyl)-4H-1,2-oxazol-3-yl]-2-methylbenzamide]
≥ 80%: mortality at 200 ppm (Spodoptera littoralis) | percent control (mortality or growth inhibition) at 200 ppm (Plutella xylostella) | mortality at 200 ppm (Thrips tabaci)

Cc1nc(C2=NOC(c3cc(Cl)cc(Cl)c3)(C(F)(F)F)C2)ccc1C(=O)NC1CON(S(C)(=O)=O)C1 (stereo not shown) [Compound A237]
≥ 80%: mortality at 200 ppm (Spodoptera littoralis; [1]) | percent effect (mortality or growth inhibition) at 200 ppm (Plutella xylostella) | percent effect (mortality or growth inhibition) at 200 ppm (Diabrotica balteata)

CS(=O)(=O)N1CC(NC(=O)c2ccc(C3=NOC(c4cc(Cl)cc(Cl)c4)(C(F)(F)F)C3)cc2C#N)CO1 (stereo not shown) [Compound A47]
≥ 80%: mortality at 200 ppm (Spodoptera littoralis; [1])

Cc1cc(C2=NOC(c3cc(C(F)(F)F)ccn3)(C(F)(F)F)C2)ccc1C(=O)N[C@H]1CON(S(C)(=O)=O)C1 (stereo partly shown) [Compound A222]
≥ 80%: mortality at 200 ppm (Spodoptera littoralis; [1]) | percent effect (mortality or growth inhibition) at 200 ppm (Plutella xylostella) | mortality at 200 ppm (Tetranychus urticae) | percent effect (mortality or growth inhibition) at 200 ppm (Diabrotica balteata)

Cc1cc(C2=NOC(c3ccc(Br)cc3)(C(F)(F)F)C2)ccc1C(=O)NC1CON(S(C)(=O)=O)C1 (stereo not shown) [Compound A55]
≥ 80%: mortality at 200 ppm (Spodoptera littoralis; [1]) | percent effect (mortality or growth inhibition) at 200 ppm (Plutella xylostella) | mortality at 200 ppm (Thrips tabaci; [2]) | mortality at 200 ppm (Tetranychus urticae) | percent effect (mortality or growth inhibition) at 200 ppm (Diabrotica balteata)

CS(=O)(=O)N1CC(NC(=O)c2cnc(C3=NOC(c4cc(Cl)cc(Cl)c4)(C(F)(F)F)C3)c3ccccc23)CO1 (stereo not shown) [Compound A239]
≥ 80%: mortality at 200 ppm (Spodoptera littoralis; [1]) | percent effect (mortality or growth inhibition) at 200 ppm (Euschistus heros) | percent effect (mortality or growth inhibition) at 200 ppm (Plutella xylostella) | mortality at 200 ppm (Thrips tabaci; [2]) | percent effect (mortality or growth inhibition) at 200 ppm (Diabrotica balteata)

Cc1cc(C2=NO[C@@](c3ccc(C(F)(F)F)c(F)c3)(C(F)(F)F)C2)ccc1C(=O)N[C@H]1CON(S(C)(=O)=O)C1 [Compound A170]
≥ 80%: mortality at 200 ppm (Spodoptera littoralis; [1]) | percent effect (mortality or growth inhibition) at 200 ppm (Plutella xylostella) | mortality at 200 ppm (Thrips tabaci; [2]) | mortality at 200 ppm (Tetranychus urticae) | percent effect (mortality or growth inhibition) at 200 ppm (Diabrotica balteata)
